{"source": "patent US20260072027A1", "about": "“Peptides And Method” (Queen Mary University of London, priority 2022, published 2026)", "key": {"[1]": {"system": "autoantibodies to oxPTM-INS", "experiment": "Competitive displacement ELISA, plate coated with oxidised insulin", "format": "binding, human", "settings": "for inhibition of type 1 diabetes serum binding to oxPTM-INS (in words): sera pre-incubated with peptide competitor", "procedure": "A competitive displacement assay was performed to map the exact epitope, namely the exact amino acid sequence binding specificities and to test the binding to native peptides versus oxidised insulin peptides. The binding to the peptide was done by direct ELISA on the native or modified peptides or by competition ELISA. Initially native synthetic peptide was oxidised by exposing to 0.05 mM CuCl2; 90 mM H2O2; 10 mM NaOCl. Native and modified peptides were fractionated by AKTA to evaluated changes in molecular profile. AKTA fractions were then tested by ELISA for reactivity (FIGS. 2 and 3). We next perform competition ELISA with the native peptides and peptides exposed to 0.05 mM CuCl2; 90 mM H2O2; 10 mM NaOCl. Serum samples were pre-incubated with either native insulin peptides or oxidised insulin peptides. Finally, based on the amino acid sequence of the identified peptides we predicted the amino acids that would be oxidised by ^●OH and HOCl and designed synthetic peptides that contain the oxidised amino acids in the synthesis. Synthetic peptides were produced by standard commercially available methods, specifically by Peptide Protein Research Ltd. Briefly, peptide synthesis was performed by automated solid phase peptide synthesis (SPPS), which was followed by purification. Each individual amino acid was added to the growing chain according to the sequence. Where specified, dihydroxyphenylalanine was added to replace Tyr or cysteate were added to replace Cys. Similarly, these peptides were tested by competition ELISA. The table below describe the different competition ELISA performed:\nSerum samples from children with type 1 diabetes were pre-incubated with the synthetic peptides before they were added to the native insulin or oxidised that were previously coated on the ELISA plate. If the antibodies in the serum sample bind to the peptide they will no longer bind to the insulin or oxidised insulin on the plate-competition ELISA. 1:200 dilutions of serum samples from T1D serum samples were pre-incubated for 2 hr at room temperature with the various peptides as shown in the table above. After incubation, serum/peptide mix was added to the ELISA plate previously coated overnight with either native insulin or oxidised insulin for an additional 2 hr incubation. Plates were then washed in a plate washer three times with PBS 0.05% tween. After washing, 100 ul of anti-human IgG diluted 1:1000 in 1% milk-PBS 0.05% tween were added for additional 1 hour and 30 min incubation. After washing, ELISA was developed by adding 100 ul of TMB (10 mg/ml in DMSO) in 10 ml of 0.1 M sodium acetate plus 2 ul of H2O2. Reaction was stopped by adding 0.5 M H2SO4 (usually 20 min for insulin ELISA).\nTo assess the binding specificity of serum samples to identified peptides, a competitive ELISA was performed. The ELISA was carried out following the method described above, except that the serum samples were pre-incubated for 2 h with and without 10 μg/ml peptides as competitors, before adding the serum samples to the insulin coated ELISA plate."}, "[2]": {"system": "CD4+ T-cells (PBMCs)", "experiment": "In vitro peptide stimulation and T-cell proliferation assay, CD4+", "format": "cell-based, human", "settings": "for CD4+ mean SI (stimulation index): Study cohort 2", "procedure,_shortened": "(§1)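 CellTrace Violet-labelled fresh PBMCs from type 1 diabetic and healthy donors cultured 7 days in 5% autologous plasma with or without 20 μg/ml insulin peptides. Proliferation measured by flow cytometry as dye dilution within the CD4+ or CD8+ subset. Stimulation index = % proliferation stimulated/% unstimulated.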"}, "[3]": {"system": "CD8+ T-cells (PBMCs)", "experiment": "In vitro peptide stimulation and T-cell proliferation assay, CD8+", "format": "cell-based, human", "settings": "for CD8+ mean SI (stimulation index): Study cohort 2", "procedure,_shortened": "as §1"}, "[4]": {"settings": "Controls (N = 11), listed as Nt-INSP-4"}, "[5]": {"settings": "Type 1 diabetes (N = 18), listed as Nt-INSP-4"}}, "note": "Where “and” joins values, the source holds several entries; their conditions need not be identical. Equal entries are not always repeated. Entries after “also recorded” stand apart in the source; their conditions may differ. Where no end group is shown, it is not given here.", "data": [{"substance": "LVEALYLVCGERGFFYTPKT [insulin B:11-30 native peptide]", "values": [{"measurement": "inhibition of type 1 diabetes serum binding to oxPTM-INS (in words)", "setting": "[1]; listed as Nt-INSP-4", "result": "comparable inhibition as oxPTM-INSP-4; also recorded: comparable inhibition compared to oxPTM-INSP-4; also recorded: blocked type 1 diabetes serum binding to oxPTM-INS like oxPTM-INSP-4"}, {"measurement": "CD4+ T-cell response, subjects with SI > 1 (%)", "setting": "[2]; Controls (N = 11)", "result": "(81.8%)"}, {"measurement": "CD4+ T-cell response, subjects with SI > 3 (%)", "setting": "[2]; Controls (N = 11)", "result": "(45.5%)"}, {"measurement": "CD4+ T-cell response, subjects with SI > 5 (%)", "setting": "[2]; Controls (N = 11)", "result": "(27.3%)"}, {"measurement": "CD4+ T-cell response, subjects with SI > 10 (%)", "setting": "[2]; Controls (N = 11)", "result": "(9.1%)"}, {"measurement": "CD4+ T-cell response, subjects with SI > 3 (%)", "setting": "[2]; [4]", "result": 45.5, "unit": "%"}, {"measurement": "CD4+ T-cell response, subjects with SI > 1 (%)", "setting": "[2]; Type 1 diabetes (N = 18)", "result": "(100%)"}, {"measurement": "CD4+ T-cell response, subjects with SI > 3 (%)", "setting": "[2]; Type 1 diabetes (N = 18)", "result": "(66.7%)"}, {"measurement": "CD4+ T-cell response, subjects with SI > 5 (%)", "setting": "[2]; Type 1 diabetes (N = 18)", "result": "(5.3%)"}, {"measurement": "CD4+ T-cell response, subjects with SI > 10 (%)", "setting": "[2]; Type 1 diabetes (N = 18)", "result": "(50.0%)"}, {"measurement": "CD4+ T-cell response, subjects with SI > 3 (%)", "setting": "[2]; [5]", "result": 66.7, "unit": "%"}, {"measurement": "CD4+ mean SI (stimulation index)", "setting": "[2]; controls", "result": "6.89±3.4"}, {"measurement": "CD4+ mean SI (stimulation index)", "setting": "[2]; type 1 diabetes", "result": "119.8±51.69"}, {"measurement": "CD8+ T-cell response, subjects with SI > 1 (%)", "setting": "[3]; Controls (N = 11)", "result": "(63.6%)"}, {"measurement": "CD8+ T-cell response, subjects with SI > 3 (%)", "setting": "[3]; Controls (N = 11)", "result": "(45.5%)"}, {"measurement": "CD8+ T-cell response, subjects with SI > 5 (%)", "setting": "[3]; Controls (N = 11)", "result": "(27.3%)"}, {"measurement": "CD8+ T-cell response, subjects with SI > 10 (%)", "setting": "[3]; Controls (N = 11)", "result": "(18.2%)"}, {"measurement": "CD8+ T-cell response, subjects with SI > 1 (%)", "setting": "[3]; [4]", "result": 63.6, "unit": "%"}, {"measurement": "CD8+ T-cell response, subjects with SI > 1 (%)", "setting": "[3]; Type 1 diabetes (N = 18)", "result": "(72.2%)"}, {"measurement": "CD8+ T-cell response, subjects with SI > 3 (%)", "setting": "[3]; Type 1 diabetes (N = 18)", "result": "(55.6%)"}, {"measurement": "CD8+ T-cell response, subjects with SI > 5 (%)", "setting": "[3]; Type 1 diabetes (N = 18)", "result": "(38.9%)"}, {"measurement": "CD8+ T-cell response, subjects with SI > 10 (%)", "setting": "[3]; Type 1 diabetes (N = 18)", "result": "(33.3%)"}, {"measurement": "CD8+ T-cell response, subjects with SI > 1 (%)", "setting": "[3]; [5]", "result": 72.2, "unit": "%"}, {"measurement": "CD8+ mean SI (stimulation index)", "setting": "[3]; controls", "result": "5.948±3.125"}, {"measurement": "CD8+ mean SI (stimulation index)", "setting": "[3]; type 1 diabetes", "result": "405.8±325.5"}]}, {"substance": "oxPTM-INSP-3: oxidised forms of insulin peptide 3 (A:12-21), in house oxidised or in silico derivatives (SLYQLENYCN; not fully specified (N-terminus); also: oxidised forms, in house oxidised or in silico derivatives, modified residues not defined)", "values": [{"measurement": "inhibition of type 1 diabetes serum binding to oxPTM-INS (in words)", "setting": "[1]", "result": "strongly inhibited binding to oxPTM-INS; also recorded: able to inhibit the binding"}, {"measurement": "reduced binding to oxidised whole insulin", "setting": "[1]; type 1 diabetes sera pre-incubated with peptide, listed as Oxidised peptide 3", "result": "35-80% and 40-80%"}, {"measurement": "CD4+ T-cell response, subjects with SI > 3 (%)", "setting": "[2]; Controls (N = 11)", "result": 9.1, "unit": "%"}, {"measurement": "CD4+ T-cell response, subjects with SI > 3 (%)", "setting": "[2]; Type 1 diabetes (N = 18)", "result": 22.2, "unit": "%"}]}]}
